# In ChEMBL document CHEMBL1201862, “PubChem BioAssay data set” (2004):
# Calls of active or inactive are those of the source. For most assays here, no stated cut-off is given here; in the data, actives have a measured EC50 and inactives only a lower limit.
# Assays:
# [1] = target: T1, Zinc finger protein mex-5 (Caenorhabditis elegans, UniProt Q9XUB2); experiment: potency of MEX-5 RNA-binding blockers – biochemical, C. elegans, fluorescence polarization, dose response (AID 1960)
# T1 sequence (Q9XUB2 whole entry): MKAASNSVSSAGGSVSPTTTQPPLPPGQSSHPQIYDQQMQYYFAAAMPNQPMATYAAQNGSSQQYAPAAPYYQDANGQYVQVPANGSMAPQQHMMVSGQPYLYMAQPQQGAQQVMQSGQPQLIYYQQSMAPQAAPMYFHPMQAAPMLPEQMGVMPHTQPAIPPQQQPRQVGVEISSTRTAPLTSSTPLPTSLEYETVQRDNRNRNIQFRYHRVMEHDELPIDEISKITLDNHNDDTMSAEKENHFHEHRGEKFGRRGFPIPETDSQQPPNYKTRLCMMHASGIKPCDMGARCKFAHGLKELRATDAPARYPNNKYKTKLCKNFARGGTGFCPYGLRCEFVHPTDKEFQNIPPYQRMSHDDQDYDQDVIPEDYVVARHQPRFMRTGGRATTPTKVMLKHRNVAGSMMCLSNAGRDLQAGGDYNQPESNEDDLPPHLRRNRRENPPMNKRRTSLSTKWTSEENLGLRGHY
# [2] = target: T2, RNA-binding protein pos-1 (Caenorhabditis elegans, UniProt G5EF15); experiment: disruptors of C. elegans POS-1 RNA interaction – biochemical, fluorescence polarization, dose response (AID 1964);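 further: purified POS-1 fused to maltose binding protein made in E. coli; potency of compounds blocking POS-1 binding to fluorescent RNA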
# T2 sequence (G5EF15 whole entry): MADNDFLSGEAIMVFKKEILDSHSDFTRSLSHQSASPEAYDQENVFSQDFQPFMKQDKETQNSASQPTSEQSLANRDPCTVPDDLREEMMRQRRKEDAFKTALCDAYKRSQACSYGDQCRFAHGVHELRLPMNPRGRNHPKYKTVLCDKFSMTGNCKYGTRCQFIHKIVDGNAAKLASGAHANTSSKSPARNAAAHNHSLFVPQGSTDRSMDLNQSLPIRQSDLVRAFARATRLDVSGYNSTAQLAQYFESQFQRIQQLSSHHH
# H4 = experiment: Luminescence Cell-Based Dose Response HTS to Identify Activators of 5'UTR Stem-Loop Driven Prion Protein mRNA Translation in H4 Neuroglioblastoma Cells. [Related pubchem assays: 1829 (Project Summary), 1814 (Primary HTS)]; format: functional; settings: Homo sapiens
# [3] = Luminescence Cell-Based Dose Confirmation HTS to Identify Activators of 5'UTR Stem-Loop Driven Alpha-Synuclein mRNA Translation in H4 Neuroglioblastoma Cells. [Related pubchem assays: 1829 (Project Summary), 1814 (Primary HTS)]; format: functional
# [4] = Luminescence Cell-Based Dose Response HTS to Identify Activators of Luciferase Translation or Activity in H4 […] Cells. [Related pubchem assays: 1829 (Project Summary), 1814 (Primary HTS)]; format: functional
# [5] = target: T3, Heat shock factor protein 1 (Mus musculus, UniProt P38532); experiment: enhancement of HSF1-driven luciferase signal – cell-based, NIH3T3, luminescence, dose retest, confirmation (AID 435004); format: functional;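 further: stress induced by proteasome inhibitor MG132 added 30 min after compound; luciferase reporter driven by HSF1 response element in NIH3T3 cells; actives raise luminescence as potentiators of the MG132 stress response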
# T3 sequence (P38532 whole entry): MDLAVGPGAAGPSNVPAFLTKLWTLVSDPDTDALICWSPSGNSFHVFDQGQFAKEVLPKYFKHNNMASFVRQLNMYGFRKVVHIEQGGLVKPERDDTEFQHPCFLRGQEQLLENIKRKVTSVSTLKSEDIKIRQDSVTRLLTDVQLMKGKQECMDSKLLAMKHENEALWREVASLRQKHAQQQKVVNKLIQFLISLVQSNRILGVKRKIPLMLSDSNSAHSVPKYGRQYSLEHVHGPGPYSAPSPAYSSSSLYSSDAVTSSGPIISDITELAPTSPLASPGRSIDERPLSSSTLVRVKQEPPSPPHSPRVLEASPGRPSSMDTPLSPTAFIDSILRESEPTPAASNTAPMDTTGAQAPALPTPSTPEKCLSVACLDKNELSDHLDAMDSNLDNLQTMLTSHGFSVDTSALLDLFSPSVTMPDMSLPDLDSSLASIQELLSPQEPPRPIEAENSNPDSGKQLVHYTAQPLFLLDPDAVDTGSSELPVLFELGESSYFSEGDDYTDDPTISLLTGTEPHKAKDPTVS
# [6] = alpha-synuclein stem-loop luciferase translation blockers – H4 neuroglioma cells, luminescence, confirmation (AID 1988); format: functional, cell-based
# [7] = luciferase reporter signal suppression in cells – H4 neuroglioma cells, luminescence, dose response (AID 1990); format: functional, cell-based
# [8] = target: Luciferin 4-monooxygenase (Photinus pyralis, UniProt P08659); experiment: inhibition of purified Photinus pyralis luciferase – biochemical, luminescence, dose response (AID 1891)
# Luciferin 4-monooxygenase, sequence (P08659 whole entry): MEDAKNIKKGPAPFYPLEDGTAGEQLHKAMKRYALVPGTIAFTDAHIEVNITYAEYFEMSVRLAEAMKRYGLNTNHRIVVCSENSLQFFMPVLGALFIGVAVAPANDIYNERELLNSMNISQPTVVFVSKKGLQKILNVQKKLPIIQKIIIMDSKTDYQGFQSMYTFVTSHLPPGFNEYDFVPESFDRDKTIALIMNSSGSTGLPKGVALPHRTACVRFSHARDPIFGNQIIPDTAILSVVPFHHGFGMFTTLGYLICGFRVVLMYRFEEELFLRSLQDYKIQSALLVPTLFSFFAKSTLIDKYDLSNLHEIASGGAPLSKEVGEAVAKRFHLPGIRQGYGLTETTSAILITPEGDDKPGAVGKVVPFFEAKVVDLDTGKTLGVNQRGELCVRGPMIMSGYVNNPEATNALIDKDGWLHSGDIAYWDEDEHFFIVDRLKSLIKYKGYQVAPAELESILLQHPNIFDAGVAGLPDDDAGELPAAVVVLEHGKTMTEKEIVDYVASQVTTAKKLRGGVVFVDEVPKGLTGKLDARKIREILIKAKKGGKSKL
# [9] = Luminescence Cell-Based Dose Confirmation HTS to Identify Inhibitors of Platelet Dense Granule Release. [Related pubchem assays: 1663 (Primary HTS), 1678 (Summary of Project)]; format: functional
# [10] = target: T4, Replicative DNA helicase DnaB (Mycobacterium tuberculosis, UniProt P9WMR3); experiment: DnaB intein splicing inhibitors, dose response, biochemical, cell-free fluorescence (AID 449749); format: functional
# T4 sequence (P9WMR3 whole entry): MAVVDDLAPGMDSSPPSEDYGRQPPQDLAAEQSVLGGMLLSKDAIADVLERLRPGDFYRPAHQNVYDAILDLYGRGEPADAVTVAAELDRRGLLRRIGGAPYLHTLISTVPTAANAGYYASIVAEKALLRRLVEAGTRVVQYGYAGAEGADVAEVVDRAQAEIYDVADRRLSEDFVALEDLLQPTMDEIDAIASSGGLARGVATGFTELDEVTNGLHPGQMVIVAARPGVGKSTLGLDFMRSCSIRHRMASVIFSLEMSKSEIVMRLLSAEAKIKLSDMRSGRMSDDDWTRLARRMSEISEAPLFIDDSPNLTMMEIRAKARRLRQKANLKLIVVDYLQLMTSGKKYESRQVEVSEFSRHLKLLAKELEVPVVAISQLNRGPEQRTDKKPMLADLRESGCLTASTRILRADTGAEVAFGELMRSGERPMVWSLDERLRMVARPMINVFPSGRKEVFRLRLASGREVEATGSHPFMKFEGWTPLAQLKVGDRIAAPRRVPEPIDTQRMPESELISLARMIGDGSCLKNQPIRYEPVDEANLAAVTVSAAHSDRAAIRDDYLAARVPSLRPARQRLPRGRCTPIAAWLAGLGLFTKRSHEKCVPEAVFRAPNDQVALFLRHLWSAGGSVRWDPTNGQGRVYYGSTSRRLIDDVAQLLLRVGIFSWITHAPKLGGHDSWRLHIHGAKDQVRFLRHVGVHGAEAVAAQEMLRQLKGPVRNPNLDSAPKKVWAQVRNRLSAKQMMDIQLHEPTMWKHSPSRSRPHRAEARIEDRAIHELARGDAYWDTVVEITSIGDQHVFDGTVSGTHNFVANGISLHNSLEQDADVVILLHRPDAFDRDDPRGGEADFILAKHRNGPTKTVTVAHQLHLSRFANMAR
# Protein RecA = target: T5, Protein RecA (Mycobacterium tuberculosis, UniProt P9WHJ3); experiment: Fluorescence Cell-Free Homogeneous Dose Retest to Identify Inhibitors of RecA-Intein Splicing Activity. [Related pubchem assays (depositor defined):AID2097, AID2223, AID489010, AID492950]; format: functional
# T5 sequence (P9WHJ3 whole entry): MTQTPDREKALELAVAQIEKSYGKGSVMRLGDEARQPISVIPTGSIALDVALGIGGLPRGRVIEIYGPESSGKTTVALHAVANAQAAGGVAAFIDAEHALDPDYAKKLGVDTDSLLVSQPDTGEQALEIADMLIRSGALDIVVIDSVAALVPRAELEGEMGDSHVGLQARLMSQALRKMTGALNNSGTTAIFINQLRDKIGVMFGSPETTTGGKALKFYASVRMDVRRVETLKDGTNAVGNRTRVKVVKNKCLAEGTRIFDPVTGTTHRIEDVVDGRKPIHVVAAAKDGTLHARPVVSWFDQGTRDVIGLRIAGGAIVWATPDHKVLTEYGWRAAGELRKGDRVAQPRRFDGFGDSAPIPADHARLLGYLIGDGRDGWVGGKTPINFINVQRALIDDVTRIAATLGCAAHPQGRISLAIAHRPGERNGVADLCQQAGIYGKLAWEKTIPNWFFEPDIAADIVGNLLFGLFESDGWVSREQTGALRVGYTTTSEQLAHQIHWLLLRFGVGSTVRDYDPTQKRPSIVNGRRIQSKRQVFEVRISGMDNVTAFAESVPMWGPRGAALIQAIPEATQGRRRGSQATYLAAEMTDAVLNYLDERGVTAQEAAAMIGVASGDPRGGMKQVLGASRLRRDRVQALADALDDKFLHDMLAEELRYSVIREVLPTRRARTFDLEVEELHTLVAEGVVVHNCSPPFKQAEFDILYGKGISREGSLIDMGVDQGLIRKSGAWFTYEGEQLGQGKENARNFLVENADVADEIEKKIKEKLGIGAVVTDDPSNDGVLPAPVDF
structure (smiles),measurement,setting,value
C/C(NCc1ccc2c(c1)OCO2)=C1/C(=O)NC(=O)N(c2ccccc2)C1=O,EC50,[1],> 300 µM (not active)
same,EC50,[2],> 300 µM (not active)
COc1ccc(/C=C2/N=C(c3cccs3)OC2=O)cc1OC(C)C,EC50,[1],41.1 µM (active)
same,EC50,[2],> 300 µM (not active)
COc1ccc(C(=O)N=C(N)Nc2nc3ccccc3o2)cc1,EC50,H4,29.5 µM (active)
same,EC50,[3],> 120 µM (not active)
same,EC50,[4],24.2 µM (active)
O=C(c1cccnc1S)N1CCN(S(=O)(=O)c2ccc(Br)cc2Cl)CC1,EC50,[5],> 260 µM (inactive)
Cc1cccn2c(=O)c3cc(C(=O)NCCN4CCOCC4)c(=N)n(Cc4cccnc4)c3nc12,EC50,[6],9.91 µM (active)
same,EC50,[7],12.6 µM (active)
same,EC50,[1],87.2 µM (active)
same,EC50,[2],> 300 µM (not active)
COc1ccc(N2CCN(c3nc4c(c(=O)n(C)c(=O)n4C)n3Cc3ccccc3)CC2)cc1,EC50,[8],18 µM (active)
same,EC50,[9],> 112 µM (not active)
Brc1ccc2oc3c(N4CCOCC4)ncnc3c2c1,EC50,H4,14.7 µM (active)
same,EC50,[3],18.5 µM (active)
same,EC50,[4],4.18 µM (active)
CCN(CC)S(=O)(=O)c1ccc(N2CCN(S(=O)(=O)c3ccccc3C#N)CC2)nc1,AC50,[10],> 380 µM (inactive)
same,EC50,Protein RecA,> 380 µM (inactive)
COc1ccc(NC(S)=Nc2ccc3nccnc3c2)cc1,EC50,H4,8.17 µM (active)
same,EC50,[3],> 120 µM (not active)
same,EC50,[4],7.7 µM (active)
CCN1C(=O)c2cccc3c(S(=O)(=O)Nc4ncccc4C)ccc1c23,EC50,[5],> 260 µM (inactive)
COc1cc(CNCC(O)c2ccccc2)ccc1OCc1ccc(Cl)nc1 (stereo not drawn),EC50,[5],> 260 µM (inactive)
Cc1cnn(-c2cc(Oc3ccccc3)ncn2)c1,EC50,H4,11 µM (active)
same,EC50,[3],1.11 µM (active)
same,EC50,[4],97.4 µM (active)
COC(=O)c1ccccc1NC(=S)NC(=O)c1ccc(C)cc1,AC50,[10],0.452 µM (active)
same,EC50,Protein RecA,0.239 µM (active)
COc1ccccc1NC(=O)CSc1nc2c(sc3ccccc32)c(=O)n1CCN(C)C,AC50,[10],58.7 µM (active)
same,EC50,Protein RecA,12.9 µM (active)
Cc1ccn2c(=O)nc(SCC(=O)Nc3cc(C)on3)nc2c1,EC50,[1],> 300 µM (not active)
same,EC50,[2],> 300 µM (not active)
COC(=O)CCC(=O)OC1(C)C(=O)C2=COC(c3ccc(OC)cc3)=CC2=C(Br)C1=O (stereo not drawn),EC50,[1],33.1 µM (active)
same,EC50,[2],91.5 µM (active)
CCOC(=O)c1c(NC(=O)COC(=O)c2ncc(Cl)c(Cl)c2Cl)sc(C(=O)N(C)C)c1C,AC50,[10],14.1 µM (active)
same,EC50,Protein RecA,45.5 µM (active)
CCOCCCN=C(S)Nc1ccc2nc(N3CCOCC3)cc(C)c2c1,EC50,[5],> 260 µM (inactive)
CS(=O)(=O)NNC(=O)Cn1nnc(-c2ccc(OCc3ccccc3Cl)cc2)n1,EC50,H4,> 120 µM (not active)
same,EC50,[3],18.2 µM (active)
same,EC50,[4],25 µM (active)
COc1ccc(-c2cc(C(F)(F)F)nc(SCC(=O)N3CCOCC3)n2)cc1OC,EC50,[8],> 112 µM (not active)
same,EC50,[9],15.8 µM (active)
CC1CCN(c2ccc(C=O)o2)CC1,EC50,[5],> 260 µM (inactive)
NS(=O)(=O)c1ccc(NC(=O)COC(=O)c2cn(-c3ccccc3)nc2-c2ccc(F)cc2)cc1,EC50,[1],> 300 µM (not active)
same,EC50,[2],> 300 µM (not active)
COc1ccc(C2C(C#N)=C(N)OC3=C2C(=O)CCC3)cc1Cn1nc(C)c([N+](=O)[O-])c1C (stereo not drawn),EC50,[1],> 300 µM (not active)
same,EC50,[2],> 300 µM (not active)
Cc1cc(C)cc(NC(=O)CN2C(=O)NC(C)(c3ccccc3)C2=O)c1 (stereo not drawn),EC50,[5],> 260 µM (inactive)
Cn1c(SCc2cccc(C(F)(F)F)c2)nnc1-c1ccco1,EC50,[5],> 260 µM (inactive)
COC(=O)c1ccc(-n2cnc3ccccc32)nc1,EC50,H4,> 120 µM (not active)
same,EC50,[3],14.1 µM (active)
same,EC50,[4],16.1 µM (active)
Cc1cccc(CC(C)NC(=O)c2oc3c(F)cccc3c2C)n1 (stereo not drawn),EC50,[5],> 260 µM (inactive)
C(=N\Nc1nc(-c2ccccc2)cs1)/c1ccco1,EC50,H4,33.2 µM (active)
same,EC50,[3],5.18 µM (active)
same,EC50,[4],7.64 µM (active)
CCCCc1noc2c1/C(=N\O)CC(c1ccccc1)C2 (stereo not drawn),EC50,H4,27.9 µM (active)
same,EC50,[3],> 120 µM (not active)
same,EC50,[4],6.02 µM (active)
COC(=O)c1ccc(CO/N=C2\CCCc3nonc32)cc1,EC50,H4,12.9 µM (active)
same,EC50,[3],92.4 µM (active)
same,EC50,[4],17.8 µM (active)
